In assay [1] the test system is HeLa cells. Nature of the assay: Transfection of GFP-expressing plasmid DNA in HeLa cells (FCM). It counts as cell-based. The conditions noted are these: material 0.25-8 μg/well, plasmid DNA 0.5 μg/well, 24 h, compared with Lipofectamine 2000. The method, then:
In this experiment, with GFP-expressing plasmid DNA as a reporter gene, a gene transfection efficiency of a cationic lipid analog material in HeLa cells was detected. A specific method was as follows:
HeLa cells were inoculated in a 24-well plate and cultured in an incubator for 12 h; each of different cationic lipid analog materials—(0.25 μg/well to 8 μg/well) was mixed with GFP-expressing plasmid DNA (0.5 μg/well) in 40 μL of a sodium acetate buffer (25 mM, […] resulting mixtures each were allowed to stand for 10 min and then diluted with 460 μL of a Opti-MEM medium to obtain plasmid DNA-loaded cationic lipid analog complex particle solutions; a medium for the HeLa cells in the plate was removed, then the HeLa cells were washed once with PBS, and the complex particle solutions each were added; and the cells were further cultured for 24 h, and then a plasmid DNA transfection efficiency in cells was analyzed by FCM. A commercial gene transfection reagent Lipofectamine 2000 was adopted as a positive control.

Assay [2] relates to HeLa cells. Nature of the assay: Transfection of luciferase-expressing plasmid DNA in HeLa cells. The following applies: 24 h, compared with Lipofectamine 2000. It counts as cell-based. As to the method:
In this example, with luciferase-expressing plasmid DNA as a reporter gene, a gene transfection efficiency of a cationic lipid analog material in HeLa cells was detected. A specific operation method was as follows: HeLa cells were inoculated in a 96-well plate and cultured in an incubator for 12 h; each of different cationic lipid analog materials was mixed with luciferase-expressing plasmid DNA (0.5 μg) in 40 μL of a sodium acetate buffer (25 mM, pH 5.2), and resulting mixtures each were allowed to stand for 10 min and then diluted with 460 μL of a Opti-MEM medium to obtain plasmid DNA-loaded cationic lipid analog complex particle solutions; a medium for the HeLa cells in the plate was removed, then the HeLa cells were washed once with PBS, and the complex particle solutions each were added in a volume of 125 μL; the cells were further cultured for 24 h, then a resulting culture supernatant was discarded, and the cells were fully lysed; and a substrate was added at 50 μl/well, and an expression level of luciferase was detected by a multi-mode microplate reader.

For another assay, the system named is DC 2.4 cells. Nature of the assay: Transfection of eGFP-expressing mRNA in DC 2.4 cells (FCM and LSCM). It counts as cell-based, mouse. The following applies: material 0.25-2 μg/well, mRNA 0.2 μg/well, 24 h, compared with Lipofectamine 2000. As to the method: In this experiment, with eGFP-mRNA as model mRNA, an mRNA transfection efficiency of a cationic lipid analog material in DC 2.4 cells was detected. A specific operation method was as follows:
DC 2.4 cells were inoculated in a 48-well plate and cultured in an incubator for 12 h; each of different cationic lipid analog materials (0.25 μg/well to 2 μg/well) was mixed with eGFP-expressing mRNA (0.2 μg/well) in 20 μL of a sodium acetate buffer (25 mM, pH 5.2), and resulting mixtures each were allowed to stand for 10 min and then diluted with 230 μL of a Opti-MEM medium to obtain mRNA-loaded complex particle solutions; a medium for the DC 2.4 cells in the plate was removed, then the DC 2.4 cells were washed once with PBS, and the complex particle solutions each were added; and the cells were cultured for 24 h, an mRNA transfection efficiency in cells was observed by FCM and LSCM. A commercial gene transfection reagent Lipofectamine 2000 was adopted as a positive control.

Data on 21 compounds can be found in patent publication US20230390402A1, “IONIZABLE CATIONIC LIPID ANALOG MATERIAL AND USE THEREOF AS DRUG DELIVERY CARRIER” (GUANGZHOU LIDE BIOMEDICINE TECHNOLOGY CO., LTD., priority 2021, published 2023).

The structures appear in SMILES notation.

Turning to `CCCCCCCCCCCCCC(=O)N(CCCCN(C)C)C(C(=O)NCCCCCCNC(=O)C(C(C)C)N(CCCN(C)C)C(=O)CCCCCCCCCCCCC)C(C)C` (stereo not shown) [I1R2C14A1], the “transfection efficiency of GFP-expressing plasmid DNA (positive rate)” value (from here on “transfection efficiency … (positive rate)”) in the assay on HeLa cells [1] is on record as “equivalent to or higher than”. In addition, the “transfection efficiency of luciferase-expressing plasmid DNA (luciferase expression)” value with HeLa cells [2] was “equivalent to or higher than”. Moreover, the “mRNA transfection efficiency (eGFP-mRNA)” value in the assay with DC 2.4 cells is “equivalent to or higher than”.
Consider `CCCCCCCCCCCCCCCC(=O)N(CCCN(C)C)C(C(=O)NCCCCCCNC(=O)C(C(C)C)N(CCCN(C)C)C(=O)CCCCCCCCCCCCCCC)C(C)C` (stereo not shown) [I1R2C16A1], for which the “mRNA transfection efficiency (eGFP-mRNA)” value with DC 2.4 cells is recorded as “equivalent to or higher than”.
With `CCCCCCCC/C=C\CCCCCCCC(=O)N(CCCN(C)C)C(C(=O)NCCCCCCNC(=O)C(C(C)C)N(CCCN(C)C)C(=O)CCCCCCC/C=C\CCCCCCCC)C(C)C` (stereo not shown) [I1R2C18-1A1], the “mRNA transfection efficiency (eGFP-mRNA)” value in the assay with DC 2.4 cells is “equivalent to or higher than”.
`CCCCC/C=C\C/C=C\CCCCCCCC(=O)N(CCCN(C)C)C(C(=O)NCCCCCCNC(=O)C(C(C)C)N(CCCN(C)C)C(=O)CCCCCCC/C=C\C/C=C\CCCCC)C(C)C` (stereo not shown) [I1R2C18-2A1]: the “transfection efficiency … (positive rate)” value in the assay on HeLa cells [1] is listed as “equivalent to or higher than”. The “mRNA transfection efficiency (eGFP-mRNA)” value in the assay with DC 2.4 cells is recorded as “equivalent to or higher than”.
Regarding `CCCCCCCCCCCCCCCCCC(=O)N(CCCN(C)C)C(C(=O)NCCCCCCNC(=O)C(C(C)C)N(CCCN(C)C)C(=O)CCCCCCCCCCCCCCCCC)C(C)C` (stereo not shown) [I1R2C18A1], the “mRNA transfection efficiency (eGFP-mRNA)” value with DC 2.4 cells is on record as “equivalent to or higher than”.
Regarding `CCCCCCCCCCCCCC(=O)N(CCC1CCCN1C)C(C(=O)NCCCCCCNC(=O)C(C(C)C)N(CCC1CCCN1C)C(=O)CCCCCCCCCCCCC)C(C)C` (stereo not shown) [I1R11C14A1], in the assay on HeLa cells [1], the “transfection efficiency … (positive rate)” value is “equivalent to or higher than”. Also, in the assay with HeLa cells [2], the “transfection efficiency of luciferase-expressing plasmid DNA (luciferase expression)” value was “equivalent to or higher than”. Moreover, the “mRNA transfection efficiency (eGFP-mRNA)” value with DC 2.4 cells is “equivalent to or higher than”.
Consider `CCCCCCCCCCCCCCCC(=O)N(CCC1CCCN1C)C(C(=O)NCCCCCCNC(=O)C(C(C)C)N(CCC1CCCN1C)C(=O)CCCCCCCCCCCCCCC)C(C)C` (stereo not shown) [I1R11C16A1], for which, in the assay on DC 2.4 cells, the “mRNA transfection efficiency (eGFP-mRNA)” value is reported as “equivalent to or higher than”.
Same read-out and setting: the value for `CCCCCCCCCCCCCCCCCC(=O)N(CCC1CCCN1C)C(C(=O)NCCCCCCNC(=O)C(C(C)C)N(CCC1CCCN1C)C(=O)CCCCCCCCCCCCCCCCC)C(C)C` (stereo not shown) [I1R11C18A1] was “equivalent to or higher than”.
As to `CCCCCCCCCCCCCC(=O)N(CCN(C)C)C(C(=O)NCCOCCOCCNC(=O)C(C(C)C)N(CCN(C)C)C(=O)CCCCCCCCCCCCC)C(C)C` (stereo not shown) [I2R1C14A1], the “transfection efficiency … (positive rate)” value with HeLa cells [1] was “equivalent to or higher than”. Also, in the assay on HeLa cells [2], the “transfection efficiency of luciferase-expressing plasmid DNA (luciferase expression)” value is reported as “equivalent to or higher than”. Besides, in the assay with DC 2.4 cells, the “mRNA transfection efficiency (eGFP-mRNA)” value was “equivalent to or higher than”.
With `CCCCCCCCCCCCCCCC(=O)N(CCN(C)C)C(C(=O)NCCOCCOCCNC(=O)C(C(C)C)N(CCN(C)C)C(=O)CCCCCCCCCCCCCCC)C(C)C` (stereo not shown) [I2R1C16A1], the “transfection efficiency … (positive rate)” value in the assay with HeLa cells [1] was “equivalent to or higher than”. In addition, the “transfection efficiency of luciferase-expressing plasmid DNA (luciferase expression)” value with HeLa cells [2] is listed as “equivalent to or higher than”. Besides, the “mRNA transfection efficiency (eGFP-mRNA)” value with DC 2.4 cells is on record as “equivalent to or higher than”.
As to `CCCCCCCC/C=C\CCCCCCCC(=O)N(CCN(C)C)C(C(=O)NCCOCCOCCNC(=O)C(C(C)C)N(CCN(C)C)C(=O)CCCCCCC/C=C\CCCCCCCC)C(C)C` (stereo not shown) [I2R1C18-1A1], the “transfection efficiency … (positive rate)” value in the assay with HeLa cells [1] was “equivalent to or higher than”. Besides, in the assay with HeLa cells [2], the “transfection efficiency of luciferase-expressing plasmid DNA (luciferase expression)” value is “equivalent to or higher than”. Moreover, in the assay with DC 2.4 cells, the “mRNA transfection efficiency (eGFP-mRNA)” value is “equivalent to or higher than”.
With `CCCCC/C=C\C/C=C\CCCCCCCC(=O)N(CCN(C)C)C(C(=O)NCCOCCOCCNC(=O)C(C(C)C)N(CCN(C)C)C(=O)CCCCCCC/C=C\C/C=C\CCCCC)C(C)C` (stereo not shown) [I2R1C18-2A1], in the assay with HeLa cells [1], the “transfection efficiency … (positive rate)” value is recorded as “equivalent to or higher than”.
With `CCCCCCCCCCCCCC(=O)N(CCCN(C)C)C(C(=O)NCCOCCOCCNC(=O)C(C(C)C)N(CCCN(C)C)C(=O)CCCCCCCCCCCCC)C(C)C` (stereo not shown) [I2R2C14A1], the “transfection efficiency … (positive rate)” value in the assay with HeLa cells [1] is reported as “equivalent to or higher than”. Besides, the “mRNA transfection efficiency (eGFP-mRNA)” value with DC 2.4 cells is on record as “equivalent to or higher than”.
With `CCCCCCCCCCCCCC(=O)C(CCCN(CC)CC)C(C(=O)NCCOCCOCCNC(=O)C(C(C)C)N(CCCN(CC)CC)C(=O)CCCCCCCCCCCCC)C(C)C` (stereo not shown) [I2R3C14A1], the “mRNA transfection efficiency (eGFP-mRNA)” value in the assay with DC 2.4 cells is on record as “equivalent to or higher than”.
As for `CCCCCCCCCCCCCCCC(=O)C(CCCN(CC)CC)C(C(=O)NCCOCCOCCNC(=O)C(C(C)C)N(CCCN(CC)CC)C(=O)CCCCCCCCCCCCCCC)C(C)C` (stereo not shown) [I2R3C16A1], the “transfection efficiency … (positive rate)” value in the assay on HeLa cells [1] was “equivalent to or higher than”. For the same compound, the “transfection efficiency of luciferase-expressing plasmid DNA (luciferase expression)” value in the assay with HeLa cells [2] is given as “equivalent to or higher than”. For the same compound, in the assay on DC 2.4 cells, the “mRNA transfection efficiency (eGFP-mRNA)” value was “equivalent to or higher than”.
Turning to `CCCCCCCCCCCCCCCCCC(=O)C(CCCN(CC)CC)C(C(=O)NCCOCCOCCNC(=O)C(C(C)C)N(CCCN(CC)CC)C(=O)CCCCCCCCCCCCCCCCC)C(C)C` (stereo not shown) [I2R3C18A1], in the assay with HeLa cells [1], the “transfection efficiency … (positive rate)” value is on record as “equivalent to or higher than”. The “transfection efficiency of luciferase-expressing plasmid DNA (luciferase expression)” value in the assay with HeLa cells [2] is given as “equivalent to or higher than”. The “mRNA transfection efficiency (eGFP-mRNA)” value in the assay on DC 2.4 cells was “equivalent to or higher than”.
In the case of `CCCCCCCCCCCCCCN(CCC1CCCN1C)C(C(=O)NCCOCCOCCNC(=O)C(C(C)C)N(CCC1CCCN1C)C(=O)CCCCCCCCCCCCC)C(C)C` (stereo not shown) [I2R11C14A1], the “transfection efficiency … (positive rate)” value in the assay with HeLa cells [1] is on record as “equivalent to or higher than”. Also, in the assay with DC 2.4 cells, the “mRNA transfection efficiency (eGFP-mRNA)” value is on record as “equivalent to or higher than”.
For the compound `CCCCCCCCCCCCCCCCN(CCC1CCCN1C)C(C(=O)NCCOCCOCCNC(=O)C(C(C)C)N(CCC1CCCN1C)C(=O)CCCCCCCCCCCCCCC)C(C)C` (stereo not shown) [I2R11C16A1], the “transfection efficiency … (positive rate)” value with HeLa cells [1] was “equivalent to or higher than”. The “mRNA transfection efficiency (eGFP-mRNA)” value in the assay on DC 2.4 cells is listed as “equivalent to or higher than”.
In the case of `CCCCCCCC/C=C\CCCCCCCC(=O)N(CCC1CCCN1C)C(C(=O)NCCOCCOCCNC(=O)C(C(C)C)N(CCC1CCCN1C)C(=O)CCCCCCC/C=C\CCCCCCCC)C(C)C` (stereo not shown) [I2R11C18-1A1], the “transfection efficiency … (positive rate)” value with HeLa cells [1] is given as “equivalent to or higher than”. In addition, the “mRNA transfection efficiency (eGFP-mRNA)” value in the assay with DC 2.4 cells is on record as “equivalent to or higher than”.
As to `CCCCC/C=C\C/C=C\CCCCCCCC(=O)N(CCC1CCCN1C)C(C(=O)NCCOCCOCCNC(=O)C(C(C)C)N(CCC1CCCN1C)C(=O)CCCCCCC/C=C\C/C=C\CCCCC)C(C)C` (stereo not shown) [I2R11C18-2A1], the “transfection efficiency … (positive rate)” value in the assay with HeLa cells [1] is recorded as “equivalent to or higher than”. Also, the “transfection efficiency of luciferase-expressing plasmid DNA (luciferase expression)” value in the assay on HeLa cells [2] is reported as “equivalent to or higher than”. Also, the “mRNA transfection efficiency (eGFP-mRNA)” value with DC 2.4 cells is on record as “equivalent to or higher than”.
Turning to `CCCCCCCCCCCCCCCCCCN(CCC1CCCN1C)C(C(=O)NCCOCCOCCNC(=O)C(C(C)C)N(CCC1CCCN1C)C(=O)CCCCCCCCCCCCCCCCC)C(C)C` (stereo not shown) [I2R11C18A1], the “transfection efficiency … (positive rate)” value with HeLa cells [1] is given as “equivalent to or higher than”. Further, the “mRNA transfection efficiency (eGFP-mRNA)” value in the assay with DC 2.4 cells is “equivalent to or higher than”.
